Experimental data taken from patent publication US20250144230A1, “LINKERS FOR USE IN ANTIBODY DRUG CONJUGATES” (Orum Therapeutics, Inc., priority 2021, published 2025).
Where a SMILES comes first, the peptide text is derived from it. The star is where a group is joined. X1 = CSCCc1ccc(NC(=O)NCc2ccc3c(c2)CN(C2CCC(=O)N(CN*)C2=O)C3=O)cc1Cl; Hexanoyl(6-maleimido) = O=C1C=CC(=O)N1CCCCCC(=O)*

B1: CD33-D Antibody-Compound (XL) conjugate (antibody, V domains shown)
VH: EVQLVQSGAEVKKPGSSVKVSCKASGYTITDSNIHWVRQAPGQSLEWIGYIYPYNGGTDYNQKFKNRATLTVDNPTNTAYMELSSLRSEDTAFYYCVNGNPWLAYWGQGTLVTVSS
VL: DIQLTQSPSTLSASVGDRVTITCRASESLDNYGIRFLTWFQQKPGKAPKLLMYAASNQGSGVPSRFSGSGSGTEFTLTISSLQPDDFATYYCQQTKEVPWSFGQGTKVEVK
modifications: Compound (XL) linker-payload on reduced interchain cysteine of the constant region, outside this domain; Compound (XL) linker-payload (maleimide) on reduced interchain cysteines of the constant regions, outside this domain; 8.0 Compound (XL)/antibody by LC-MS (Example 2-1)
notes: Antibody-drug conjugate (BRD4 degrader payload)
B2: CD33-D antibody (antibody, V domains shown)
VH: EVQLVQSGAEVKKPGSSVKVSCKASGYTITDSNIHWVRQAPGQSLEWIGYIYPYNGGTDYNQKFKNRATLTVDNPTNTAYMELSSLRSEDTAFYYCVNGNPWLAYWGQGTLVTVSS
VL: DIQLTQSPSTLSASVGDRVTITCRASESLDNYGIRFLTWFQQKPGKAPKLLMYAASNQGSGVPSRFSGSGSGTEFTLTISSLQPDDFATYYCQQTKEVPWSFGQGTKVEVK
notes: also called anti-CD33 antibody CD33-D
B3: CD33-D Antibody-Compound (XIV) conjugate (antibody, V domains shown)
VH: EVQLVQSGAEVKKPGSSVKVSCKASGYTITDSNIHWVRQAPGQSLEWIGYIYPYNGGTDYNQKFKNRATLTVDNPTNTAYMELSSLRSEDTAFYYCVNGNPWLAYWGQGTLVTVSS
VL: DIQLTQSPSTLSASVGDRVTITCRASESLDNYGIRFLTWFQQKPGKAPKLLMYAASNQGSGVPSRFSGSGSGTEFTLTISSLQPDDFATYYCQQTKEVPWSFGQGTKVEVK
modifications: Compound (XIV) linker-payload on reduced interchain cysteine of the constant region, outside this domain; Compound (XIV) linker-payload on reduced interchain cysteines of the constant regions, outside this domain; 7.9 Compound (XIV)/antibody by LC-MS (Example 2-2)
notes: Antibody-drug conjugate

How the values were obtained:
papain = target: T1, papain (Carica papaya, UniProt P00784); assay: Papain digestion 2 of linker-payload compounds, in vitro payload release; format: biochemical; conditions: for % Payload Released / By-Products: GGFG*G (payload-CH2NHC(O)CH2NH2, cleavage between two glycines of linker) / By-Products: uncleaved: 10 μM compound, papain 2 molar equivalents, 2 hours; for % Payload Released: PBS pH 7.4, 5% DMA, room temperature; for yield of desired payload released by papain (in words): papain treatment; for By-Products: GGFG*G (payload-CH2NHC(O)CH2NH2, cleavage between two glycines of linker) / By-Products: uncleaved: PBS pH 7.4, room temperature
T1 sequence (P00784 134-345): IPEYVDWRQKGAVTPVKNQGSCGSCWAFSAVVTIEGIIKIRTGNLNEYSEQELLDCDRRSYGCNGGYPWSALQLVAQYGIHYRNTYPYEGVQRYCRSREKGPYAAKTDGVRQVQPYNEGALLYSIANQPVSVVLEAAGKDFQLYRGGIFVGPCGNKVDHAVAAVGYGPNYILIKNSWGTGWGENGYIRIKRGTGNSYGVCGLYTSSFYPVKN
Method: 10 μM of either Compound (XL), Compound (XI), Compound (XIV), Compound (XV), Compound (XII), or Compound (XVII) (PBS pH 7.4, 5% DMA co-solvent) was incubated with papain (2 molar equivalents) at room temperature for 2 hours with gentle shaking. The digests were extracted with 5 volumes of ice-cold acetonitrile and dried down, followed by reconstitution in 95:5:0.1 water:acetonitrile:formic acid. The samples were submitted for LC-MS analysis (Thermo Exploris 240) and using the appropriate reference standards, the released payload and/or incompletely cleaved linker byproducts were identified and quantified.

β-glucuronidase = target: T2, β-glucuronidase (Escherichia coli, UniProt P05804); assay: β-Glucuronidase digestion, in vitro payload release; format: biochemical
T2 construct: purchased Sigma Type IX-A
Method: 10 μM Compound (XLI) was incubated with β-glucuronidase (Sigma, Type IX-A; 1 mg/mL solution in PBS, […]) and the reaction mixture was incubated at 37° C. for 3 hours with gentle shaking. The digests were extracted with 5 volumes of ice-cold acetonitrile and dried down, followed by reconstitution in 95:5:0.1 water:acetonitrile:formic acid. The samples were submitted for LC-MS analysis (Thermo Exploris 240) and using the appropriate reference standards, the released payload and/or incompletely cleaved linker byproducts were identified and quantified.

CD33 = target: T3, CD33 (UniProt P20138 18-364, limits assumed); assay: flow cytometry binding to MV4-11 cells (procedure of Example 10)
T3 construct: whole, on cells; Endogenous antigen on the cell line; also called CD33 surface antigens
T3 sequence (P20138 18-364 limits assumed): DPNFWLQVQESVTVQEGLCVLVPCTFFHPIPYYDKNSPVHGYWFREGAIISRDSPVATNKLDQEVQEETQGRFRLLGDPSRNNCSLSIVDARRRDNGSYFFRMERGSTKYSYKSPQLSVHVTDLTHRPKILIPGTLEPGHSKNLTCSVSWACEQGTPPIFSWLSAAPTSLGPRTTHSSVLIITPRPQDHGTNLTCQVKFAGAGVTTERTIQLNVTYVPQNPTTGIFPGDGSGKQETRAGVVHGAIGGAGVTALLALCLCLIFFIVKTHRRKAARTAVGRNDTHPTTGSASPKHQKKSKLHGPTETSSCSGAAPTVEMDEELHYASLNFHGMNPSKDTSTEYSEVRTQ

T2 sequence (P05804 whole entry): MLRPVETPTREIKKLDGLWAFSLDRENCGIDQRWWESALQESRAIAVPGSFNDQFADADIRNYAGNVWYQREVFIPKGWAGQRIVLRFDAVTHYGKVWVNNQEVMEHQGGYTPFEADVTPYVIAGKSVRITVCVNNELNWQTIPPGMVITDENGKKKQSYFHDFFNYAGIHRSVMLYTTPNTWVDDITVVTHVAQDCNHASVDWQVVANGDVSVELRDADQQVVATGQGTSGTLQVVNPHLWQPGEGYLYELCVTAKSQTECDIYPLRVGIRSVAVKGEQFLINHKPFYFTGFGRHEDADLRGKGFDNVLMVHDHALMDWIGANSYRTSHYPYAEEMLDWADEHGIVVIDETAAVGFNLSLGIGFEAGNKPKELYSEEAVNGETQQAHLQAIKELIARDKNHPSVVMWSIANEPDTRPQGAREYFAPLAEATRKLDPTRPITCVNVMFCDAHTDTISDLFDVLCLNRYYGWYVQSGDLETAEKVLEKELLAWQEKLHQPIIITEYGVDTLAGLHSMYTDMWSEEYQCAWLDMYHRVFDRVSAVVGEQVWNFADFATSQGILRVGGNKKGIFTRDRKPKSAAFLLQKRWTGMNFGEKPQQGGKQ

Row | Molecule | % Payload Released (papain) | yield of desired payload released by papain (in words) (papain) | By-Products: GGFG*G (payload-CH2NHC(O)CH2NH2, cleavage between two glycines of linker) (papain) | By-Products: uncleaved (papain) | % Payload Released (β-glucuronidase; 10 μM compound, β-glucuronidase, 37° C., 3 hours) | yield of desired payload released by β-glucuronidase (in words) (β-glucuronidase; β-glucuronidase treatment) | EC50 (CD33)
1 | Cn1cc(-c2cc(NC(=O)CCCCC(=O)NCCCCNc3cccc4c3C(=O)N(C3CCC(=O)N(CNC(=O)CNC(=O)[C@H](Cc5ccccc5)NC(=O)CNC(=O)CNC(=O)CCCCCN5C(=O)C=CC5=O)C3=O)C4=O)ccc2Oc2ccc(F)cc2F)c2cc[nH]c2c1=O.O=C(O)C(F)(F)F (stereo partly drawn) [Compound (XL), N′-[4-(2,4-difluorophenoxy)-3-{6-methyl-7-oxo-1H-pyrrolo[2,3-c]pyridin-4-yl}phenyl]-N-[4-({2-[1-({2-[(2S)-2-(2-{2-[6-(2,5-dioxopyrrol-1-yl)hexanamido]acetamido}acetamido)-3-phenylpropanamido]acetamido}methyl)-2,6-dioxopiperidin-3-yl]-1,3-dioxoisoindol-4-yl}amino)butyl]hexanediamide; trifluoroacetic acid] | 90.2% | excellent yield |  |  |  |  | 
2 | CNCCOCCc1ccc(NC(=O)NCc2ccc3c(c2)CN(C2CCC(=O)N(CNC(=O)CNC(=O)[C@H](Cc4ccccc4)NC(=O)CNC(=O)CNC(=O)CCCCCN4C(=O)C=CC4=O)C2=O)C3=O)cc1Cl (stereo partly drawn) [Compound (XVIII), N-{[({[(1S)-1-({[({3-[5-({[(3-chloro-4-{2-[2-(methylamino)ethoxy]ethyl}phenyl)carbamoyl]amino}methyl)-1-oxo-3H-isoindol-2-yl]-2,6-dioxopiperidin-1-yl}methyl)carbamoyl]methyl}carbamoyl)-2-phenylethyl]carbamoyl}methyl)carbamoyl]methyl}-6-(2,5-dioxopyrrol-1-yl)hexanamide] | 97.8% | excellent yield |  |  |  |  | 
3 | O=C(CCCCCN1C(=O)C=CC1=O)NCC(=O)NCC(=O)N[C@@H](Cc1ccccc1)C(=O)NCC(=O)NCC(=O)NCN1C(=O)CCC(N2Cc3c(C#CCCCNC(=O)c4ccc(NC(=O)[C@@H]5NC6(CCCCC6)[C@@]6(C(=O)Nc7cc(Cl)ccc76)[C@H]5c5cccc(Cl)c5F)cc4)cccc3C2=O)C1=O (stereo partly drawn) [Compound (XII), (3′R,4'S,5′R)-6″-chloro-4′-(3-chloro-2-fluorophenyl)-N-(4-{[5-(2-{1-[(2-{2-[(2S)-2-(2-{2-[6-(2,5-dioxopyrrol-1-yl)hexanamido]acetamido}acetamido)-3-phenylpropanamido]acetamido}acetamido)methyl]-2,6-dioxopiperidin-3-yl}-1-oxo-3H-isoindol-4-yl)pent-4-yn-1-yl]carbamoyl}phenyl)-2″-oxo-1″H-dispiro[cyclohexane-1,2′-pyrrolidine-3′,3″-indole]-5′-carboxamide] | 9.4% | lower yields of the desired payload | 57.0%, | uncleaved 33.6% |  |  | 
4 | CNCCOCCc1ccc(NC(=O)NCc2ccc3c(c2)CN(C2CCC(=O)N(CN(C)C(=O)OCc4ccc(O[C@@H]5O[C@H](C(=O)O)[C@@H](O)[C@H](O)[C@H]5O)c(NC(=O)CCNC(=O)CCN5C(=O)C=CC5=O)c4)C2=O)C3=O)cc1Cl (stereo partly drawn) [Compound (XLI), (2S,3S,4S,5R,6S)-6-[4-({[({3-[5-({[(3-chloro-4-{2-[2-(methylamino)ethoxy]ethyl}phenyl)carbamoyl]amino}methyl)-1-oxo-3H-isoindol-2-yl]-2,6-dioxopiperidin-1-yl}methyl)(methyl)carbamoyl]oxy}methyl)-2-{3-[3-(2,5-dioxopyrrol-1-yl)propanamido]propanamido}phenoxy]-3,4,5-trihydroxyoxane-2-carboxylic acid] |  |  |  |  | 90.9% | excellent yield | 
5 | Cc1sc2c(c1C)C(c1ccc(Cl)cc1)=N[C@@H](CC(=O)NCCCCCC(=O)NCc1cccc3c1C(=O)N(C1CCC(=O)N(CNC(=O)CNC(=O)CNC(=O)[C@H](Cc4ccccc4)NC(=O)CNC(=O)CNC(=O)CCCCCN4C(=O)C=CC4=O)C1=O)C3=O)c1nnc(C)n1-2 (stereo partly drawn) [Compound (XIV), 6-{2-[(9S)-7-(4-chlorophenyl)-4,5,13-trimethyl-3-thia-1,8,11,12-tetraazatricyclo[8.3.0.0^{2,6}]trideca-2(6),4,7,10,12-pentaen-9-yl]acetamido}-N-[(2-{1-[(2-{2-[(2S)-2-(2-{2-[6-(2,5-dioxopyrrol-1-yl)hexanamido]acetamido}acetamido)-3-phenylpropanamido]acetamido}acetamido)methyl]-2,6-dioxopiperidin-3-yl}-1,3-dioxoisoindol-4-yl)methyl]hexanamide] | 11.6% | lower yields of the desired payload | 40.5%, | uncleaved 47.9% |  |  | 
6 | CSCCc1ccc(NC(=O)NCc2ccc3c(c2)CN(C2CCC(=O)N(CNC(=O)CNC(=O)CNC(=O)[C@H](Cc4ccccc4)NC(=O)CNC(=O)CNC(=O)CCCCCN4C(=O)C=CC4=O)C2=O)C3=O)cc1Cl (stereo partly drawn) [Compound (XVII), N-{[({[(1S)-1-[({[({[3-(5-{[({3-chloro-4-[2-(methylsulfanyl)ethyl]phenyl}carbamoyl)amino]methyl}-1-oxo-3H-isoindol-2-yl)-2,6-dioxopiperidin-1-yl]methyl}carbamoyl)methyl]carbamoyl}methyl)carbamoyl]-2-phenylethyl]carbamoyl}methyl)carbamoyl]methyl}-6-(2,5-dioxopyrrol-1-yl)hexanamide] ({Hexanoyl(6-maleimido)}-GGFGG-X1) | 10.7% | lower yields of the desired payload | 72.5%, | uncleaved 16.8% |  |  | 
7 | N#Cc1ccc(O[C@H]2CC[C@H](NC(=O)c3ccc(N4CCC(CN5CCN(c6cc7c(cc6F)C(=O)N(C6CCC(=O)N(CNC(=O)CNC(=O)CNC(=O)[C@H](Cc8ccccc8)NC(=O)CNC(=O)CNC(=O)CCCCCN8C(=O)C=CC8=O)C6=O)C7=O)CC5)CC4)nn3)CC2)cc1Cl (stereo partly drawn) [Compound (XV), 6-(4-{[4-(2-{1-[(2-{2-[(2S)-2-(2-{2-[6-(2,5-dioxopyrrol-1-yl)hexanamido]acetamido}acetamido)-3-phenylpropanamido]acetamido}acetamido)methyl]-2,6-dioxopiperidin-3-yl}-6-fluoro-1,3-dioxoisoindol-5-yl)piperazin-1-yl]methyl}piperidin-1-yl)-N-[(1r,4r)-4-(3-chloro-4-cyanophenoxy)cyclohexyl]pyridazine-3-carboxamide] | 5.8% | lower yields of the desired payload | 78.3%, | uncleaved 15.8% |  |  | 
8 | B1 |  |  |  |  |  |  | 0.27 nM
9 | B2 |  |  |  |  |  |  | 0.22 nM
10 | B3 |  |  |  |  |  |  | 0.22 nM
